Measured values as given in ChEMBL document CHEMBL1131852, “Synthesis and antitumor activity of water-soluble duocarmycin B1 prodrugs” (Bioorg Med Chem Lett, 1999).

Assays:
[1] = system: Colon 26; experiment: In vivo antitumor activity against Colon 26 […] at dose 0.5 mg/kg; assay type: functional
[2] = In vivo antitumor activity against Sarcoma 180 at dose 1.0 mg/kg; assay type: functional, Mus musculus
[3] = system: HeLa; experiment: In vitro anticellular activity against HeLa S3 cells 1 hr after administration of the compound; assay type: functional, cell-based; details: Homo sapiens
[4] = system: Colon 26; experiment: In vivo antitumor activity against Colon 26 […] at dose 0.25 mg/kg; assay type: functional
[5] = In vivo antitumor activity against Sarcoma 180 at dose 0.5 mg/kg; assay type: functional, Mus musculus
[6] = system: HeLa; experiment: In vitro anticellular activity against HeLa S3 cells 72 hr after administration of the compound; assay type: functional, cell-based; details: Homo sapiens
[7] = In vivo antitumor activity against Sarcoma 180 at dose 2.0 mg/kg; assay type: functional, Mus musculus
[8] = system: Colon 26; experiment: In vivo antitumor activity against Colon 26 […] at dose 1.0 mg/kg; assay type: functional
[9] = system: Colon 26; experiment: In vivo antitumor activity against Colon 26 […] at dose 2.0 mg/kg; assay type: functional
[10] = In vivo antitumor activity against Sarcoma 180 at dose 16.0 mg/kg; assay type: functional, Mus musculus
[11] = In vivo antitumor activity against Sarcoma 180 at dose 8.0 mg/kg; assay type: functional, Mus musculus

Compound	T/C [1]	T/C [2]	IC50 [3] [nM]	T/C [4]	T/C [5]	IC50 [6] [nM]	T/C [7]	T/C [8]	T/C [9]	T/C [10]	T/C [11]
COC(=O)[C@]1(C)Nc2c(OC(=O)N3CCN(C)CC3)cc3c(c2C1=O)[C@H](CBr)CN3C(=O)c1cc2cc(OC)c(OC)c(OC)c2[nH]1.Cl	0.13	0.13	170	0.37	0.26	15	–	–	–	–	–
COC(=O)[C@]1(C)Nc2c(OP(=O)(O)O)cc3c(c2C1=O)C[C@H](Br)CN3C(=O)c1cc2cc(OC)c(OC)c(OC)c2[nH]1	–	0.29	40	–	0.57	3.2	–	–	–	–	–
COC(=O)[C@]1(C)Nc2c(OC(=O)N3CCN(C)CC3)cc3c(c2C1=O)C[C@H](Br)CN3C(=O)c1cc2cc(OC)c(OC)c(OC)c2[nH]1.Cl	–	0.19	2000	–	–	70	0.083	0.23	0.045	–	–
COC(=O)[C@]1(C)Nc2c(O)cc3c(c2C1=O)C[C@H](Br)CN3C(=O)c1cc2cc(OC)c(OC)c(OC)c2[nH]1	–	–	0.13	–	0.22	0.038	–	–	–	–	–
COC(=O)[C@]1(C)Nc2c(O[C@@H]3OC(CO)[C@@H](O)C(O)[C@@H]3O)cc3c(c2C1=O)C[C@H](Br)CN3C(=O)c1cc2cc(OC)c(OC)c(OC)c2[nH]1 (stereo partly drawn)	–	–	2000	–	–	830	–	–	–	0.38	0.55
